# From patent publication US8173600B2, “Caspase-2 inhibitors and their biological applications” (Chiesi Farmaceutici S.p.A., priority 2004, dated 2012)
# Like-named read-outs stand apart in the source and are kept apart here. Peptide text beside a SMILES is read from it. * marks the point of attachment. X1 = COC(=O)C[C@H](N*)C(=O)COc1c(F)cccc1F; Quinaldoyl = O=C(c1ccc2ccccc2n1)*
# Tests used:
# primary cortical neurons = test system: primary cortical neurons
# Procedure: Primary cortical neurons were cultured from E14 SWISS mice embryos (Janvier). Mice were sacrificed by cervical dislocation and embryos were removed by caesarean. Cerebral cortices were extracted and tissues mechanically triturated 15 times in L15 medium (Gibco BRL) by using 1000 μl tips (Eppendorf), then debris were removed, and the cell suspension was centrifuged at 850 rpm for 10 min. […]
# 5.1.3 Apoptosis assays. Analysis was performed on previously stained adherent neurons by fluorescence microscopy (FM) (DM IRB inverted fluorescence microscope, Leica, Rueil-malmaison, France) equipped with a 100 W mercury short arc lamp and a X 40 N PLAN L objective or a water immersion X 100 N PLAN objective. Usually, quantitative studies were performed by both FM on approximately 200-600 cells/field by scoring 5-10 random-selected fields per experiment and flow cytometry (FC) for higher sample throughput. […] Activated caspase-2 was detected using specific FAM-conjugated peptides (called FLICA: CaspaTag™ fluorescein Caspase Activity Kits, Q-Biogen, Illkirch, France; ApoFluor™ Caspase Detection Kits, MP BioMedicals): FAM-VDVAD (SEQ ID NO:9)-fmk. Viability loss was assessed by 7-AAD (Sigma) incorporation.
# [1] = test system: 32 others related-proteases or enzymes involved in signal transduction and neuronal metabolism, nitric oxide pathway or prostanglandin metabolism; conditions: 1 μM, n=2
# [2] = after freeze/thawing of aqueous solution
# Excerpt: Stability was followed throughout 7 days at RT or after freeze/thawing of aqueous solution comprising various 10-100% of excipients by using HPLC (Varian ProStar 410 equipped of Nucleosile C18 (8 μm, 3.9×150 mm) with detection at 214 nm).
# [3] = test system: neonatal ischemic brain injury
# caspase-2 = caspase-2 (Rattus norvegicus, UniProt P55215); conditions: 5 mg/kg i.p., sacrificed at 24 hrs, brain homogenates
# Procedure: Brain hemispheres were lysed in 10 mM Hepes, 5 mM MgCl2, 42 mM KCl, 1 mM DTT, 0.5% CHAPS supplemented by complete protease inhibitors cocktail (Roche, Meylan, France) by using a manual potter on ice. Homogenates were centrifuged at 10000 g/4° C. for 10 min before keeping surnageant. Protein concentration was determined using BCA test. Proteins (50 μg) were separated on 12.5% polyacrylamide gels and transferred to PVDF membranes (Amersham). […] The monoclonal anti-mouse caspase-2 antibody (52 kDa; 11B4, Alexis Biochemicals) was used at a 1:1000 dilution; actin (42 kDa; Sigma; antibody diluted 1:5000) is used as an equal loading control.
# Caspase-2 activity (100 μg protein brain sample) was assessed in 100 μl assay buffer (50 mM HEPES, pH 7.4, 100 mM NaCl, 0.1% CHAPS, 10 mM DTT, 1 mM EDTA, 10% glycerol). The cleavage of 50 μM VDVAD(SEQ ID NO:9)-AMC by recombinant caspase-2 was measured after 2 h at 37° C. on a fluorescence microplate reader by monitoring the fluorescence emission at 510 nm upon excitation at 405 nm.
# Animals were sacrified at 24 hrs. Brain homogenates were subjected to caspase-2 activity assay and western blot analysis. IL: ipsilateral injured hemisphere, CL: contralateral unlesionned hemisphere.
# [4] = test system: global cerebral ischemia (4VO); conditions: icv, 72 h post-ischemia
# Procedure: Global cerebral ischemia was induced by four-vessel occlusion (4VO) according a Pulsinelli's derived method (Pulsinelli et al., 1982; Pulsinelli and Buchman, 1988) in young-adult rats (males Wistar aged of 10-12 weeks, 320 g+/−10 g; Janvier). The first day, head of anesthetised rats was positionned in stereotaxic ear bars and tilted down at approximatively 30° to the horizontal. After a midline incision at the level of cervical spine, both vertebral arteries were exposed under microscope and then coagulated by electocautery needle through the alar foramina at the level of first cervical vertebra. Both common carotides were then exposed 24 h later and clamped for 20-30 min (rats fell in the coma when electrocautherisation of both vertebral arteries have been well performed). Carotid arteries were then declamped to allow blood flow reperfusion. […] Rats were let in their cage with waer et food ad libitum.
# Rats were sacrificed and brain fixed by trans-cardiac perfusion with paraformaldehyde. Frontal brain slices (25 μm) were strained by Cresyl-Violet or co-stained by Hoechst 33342 and Fluorojade B to assess cell death in the hippocampus and in the cortex. […] Fluoro JadeB (green fluorescence) intake is possible only in cells which have permeable plasma membrane, thus more caracteristic of dying cells. Hoechst 33342 (blue fluorescence) label nuclei all all cells and allows to appreciate nuclear morphology changes during cell death.
# Cells were counted at the level of canula, as well as 650 μm and 780 μm after the cannula (antero-posterior axis) in the left brain hemisphere. Cells are counted in three successives slices at such levels in the hippocampus (CA1, CA3, girus dentus) and cortex. […] Both Fluoro Jade B and Hoechst stained slices were observed under a Leica DMIRB inverted fluorescence microscope equiped with ×40 objective and LEICA IM1000/Qfluorobase software (BP 340-80 excitation filter combined with LP 425 emission filter for Hoechst; BP 480/40 excitation filter combined with BP 515-560 emission filter for Fluoro Jade B).
# non-ischemic rats = conditions: rat, in vivo
# Procedure: The selective loss of vulnerable cells and Qco-VDVAD-dfp(SEQ ID NO:1)'s effects (intracerebroventricular (ICV) administrated) have been evaluated at 72 h. Rats were sacrificed and brain fixed by trans-cardiac perfusion with paraformaldehyde. Frontal brain slices (25 μm) were strained by Cresyl-Violet or co-stained by Hoechst 33342 and Fluorojade B to assess cell death in the hippocampus and in the cortex. Cresyl-Violet is a pink-red dye that labels cytoplamic body Nissl (endoplasmic reticulum structures) and nuclei in living cells thus resulting in pale or absence of staining in dying cells. Fluoro JadeB (green fluorescence) intake is possible only in cells which have permeable plasma membrane, thus more caracteristic of dying cells. Hoechst 33342 (blue fluorescence) label nuclei all all cells and allows to appreciate nuclear morphology changes during cell death.
# Cells were counted at the level of canula, as well as 650 μm and 780 μm after the cannula (antero-posterior axis) in the left brain hemisphere. Cells are counted in three successives slices at such levels in the hippocampus (CA1, CA3, girus dentus) and cortex. Cresyl-Violet stained slices were observed under white light (Nikon Eclipse E 800M microscope equipped with ×40 et ×20 objectives and LEICA IM50 software). […]
# [5] = test system: global cerebral ischemia (4VO); conditions: 4VO ischemic treated rats versus untreated rats
# Procedure: Corporal temperature was measured during churgical procedure at day 1 (from anesthesia to stepl (vertebral electrocauterisation and cannula putting up) and step 2 (coratid isolation) of chirurgical procedure during. Corporal temperature was also measured 0, 10, 20 minutes after the beginning of ischemia, at day 2. Temperature was measured 24, 48, 72 H post-ischemia and before final anesthesia for perfusion at day 5. Behavioural studies (feeding, spontaneous activity and reactivity) were performed and evaluated by scoring.
# Feeding: observation of stomacal contains at day 5
# If refeeding=1; If no refeeding=0
# Vivacity=1; More or less vivacious=0.5; No or poor vivacity=0.
# Reactivity: animal are sensitive and reactive to noise and move to the origin of the noise.
# If curious=1; If relatively curious=0.5; If not very curious=0.
# caspase-2, sequence (P55215 whole entry): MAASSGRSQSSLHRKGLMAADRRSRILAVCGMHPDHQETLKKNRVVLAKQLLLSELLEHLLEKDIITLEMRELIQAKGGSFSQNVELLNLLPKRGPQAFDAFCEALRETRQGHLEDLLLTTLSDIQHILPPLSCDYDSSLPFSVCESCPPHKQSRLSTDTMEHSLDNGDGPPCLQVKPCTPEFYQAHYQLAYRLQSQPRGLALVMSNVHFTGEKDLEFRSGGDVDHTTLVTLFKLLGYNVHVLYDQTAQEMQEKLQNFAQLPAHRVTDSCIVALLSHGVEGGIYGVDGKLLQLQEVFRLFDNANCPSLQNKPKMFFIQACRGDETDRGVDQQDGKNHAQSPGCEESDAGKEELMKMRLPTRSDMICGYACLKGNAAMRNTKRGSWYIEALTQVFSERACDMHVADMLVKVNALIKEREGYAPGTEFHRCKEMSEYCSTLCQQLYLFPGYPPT
structure (smiles),measurement,setting,value
"COC(=O)C[C@H](NC(=O)[C@H](C)NC(=O)[C@@H](NC(=O)[C@H](CC(=O)OC)NC(=O)[C@@H](NC(=O)c1ccc2ccccc2n1)C(C)C)C(C)C)C(=O)COc1c(F)cccc1F [Qco-VDVAD-dfp, 2-Quinolinylcarbonyl-L-Valinyl-L-Aspartyl (methyl ester)-L-Valinyl-L-Alanyl-L-Aspartyl (methyl ester) 2,6-difluorophenyl ester] (Quinaldoyl-VD(OMe)VA-X1)",caspase-2 activity in serum-deprived cortical neurons,primary cortical neurons; 24 h serum deprivation,prevents caspase-2 activity
same,cell permeance,primary cortical neurons; inferred from prevention of caspase-2 activity in cortical neuron cultures,cell-permeant
same,cross reactivity against 32 other related proteases or enzymes,[1],no cross reactivity
same,degradation after freeze/thawing (HPLC),[2],No degradation
same,"infarct volume (%), mean","[3]; 0.1 mg/kg i.p. 1 h after MCAO, 48 hrs, control 22.64±1.6%",9.95±2.8%
same,reduction in infarct volume,"[3]; 0.1 mg/kg i.p. single dose 1 h after MCAO / ischemic onset, 48 hrs, n=19",44%
same,infarct volume of the four animals with intermediate protection,"[3]; 5 mg/kg i.p. before ischemic onset, 4 of 12 animals",16.5±1.32%
same,"infarct volume, median of the eight animals with complete protection or very marked smaller infarct","[3]; 5 mg/kg i.p. before ischemic onset, 8 of 12 animals",0.5%
same,"infarct volume (% damage of ipsilateral hemisphere), mean","[3]; 5 mg/kg i.p. before ischemic onset, 48 hrs, control 22.1±1.4%",5.7±2.3%
same,"infarct volume, median","[3]; 5 mg/kg i.p. before ischemic onset, all 12 animals, control median=21",0.5
same,reduction in infarct volume,"[3]; 5 mg/kg i.p. single dose 5-15 min before ischemic onset, 48 hrs, n=12",74%
same,terminal transferase dUTP nick end labeling (TUNEL),[3]; ipsilateral cortex of treated animals,significantly decreased
same,caspase-2 activity in brain of ischemic rat pups,caspase-2,inhibited caspase-2 activity
same,caspase-2 processing in brain of ischemic rat pups (western blot),caspase-2,inhibited caspase-2 activity as well as caspase-2 processing
same,Cresyl-violet staining intensity in CA1,[4],partially restored
same,abnormal nuclei in CA1 (Hoechst),[4]; versus ischemic rats,less abnormal nuclei
same,cells incorporating Fluorojade B in CA1,[4]; ischemic rats 50-60%,10-20%
same,cell death in hippocampus or cortex of non-ischemic rats,non-ischemic rats,< 10%
same,topical toxicity,non-ischemic rats,not topically tokic
same,"general behaviour scoring (feeding, spontaneous activity, reactivity)",[5],better scoring
